Laboratory results as given in patent US20050095241A1, “Estrogen receptor modulators and uses thereof” (priority 2003, published 2005).

Columns and labels:
Ishikawa cells = assay: Tamoxifen-mediated agonist signaling, reporter gene and cell growth assays, Ishikawa cells; format: cell-based; details: Ishikawa cells co-transfected with ERE reporter gene; two days
From the text: (§1) Interference with PELP1 function blocks tamoxifen-mediated agonist activity in endometrial cell lines. Disruption of PELP1 functions was examined to assess interference with tamoxifen-mediated agonist signaling using reporter gene assays and cell growth assays performed in an endometrial cell line (Ishikawa) and a breast cancer cell line (MCF-7). Cancer cells were co-transfected with ERE reporter gene along with either (a) PELP1 cDNA, (b) PELP1 H1 […]), (c) PELP1 mutant cDNA lacking the nuclear localization signal (PELP-NLS mutant), or (d) PELP1-specific siRNA. Cells were stimulated with estrogen for two days and reporter gene activity and cell number were measured.

MCF-7 cells = assay: Tamoxifen-mediated agonist signaling, reporter gene and cell growth assays, MCF-7 cells; format: cell-based; details: MCF-7 cells co-transfected with ERE reporter gene; two days
From the text: as §1

ER = ER transactivation assay (ERE-luciferase) in ER-positive Ishikawa cells; format: cell-based; details: coexpression of PELP1, compared to 6 fold in vector-transfected cells, FIG. 7B
Experimental: (§2) PELP1 is widely expressed in endometrial cancer cells including the widely used endometrial cell lines (Ishikawa and RL 95-2). Control MCF-7 (ERα-positive) and MDA-MB-231 (ERβ-positive) breast cancer cells were also analyzed. (FIG. 7A). […] PELP1 modulation of the transactivation functions of both ER subtypes was performed using ERα or ERβ specific ligands. […] PELP1 also promotes ERβ transcriptional activity in Ishikawa cells when cotransfected with PELP1 (FIG. 7F). Further, endogenous PELP1 effectively interacts with ERβ in Ishikawa cells in a ligand-dependent manner (FIG. 7G).

ERα [1] = molecular target: T1, ERα (Homo sapiens, UniProt P03372); assay: 3XEREluc reporter assay with ERα specific ligand in Ishikawa cells; format: cell-based; details: PELP1-transfected Ishikawa cells treated with PPT; FIG. 7C
T1 sequence (P03372 1-595): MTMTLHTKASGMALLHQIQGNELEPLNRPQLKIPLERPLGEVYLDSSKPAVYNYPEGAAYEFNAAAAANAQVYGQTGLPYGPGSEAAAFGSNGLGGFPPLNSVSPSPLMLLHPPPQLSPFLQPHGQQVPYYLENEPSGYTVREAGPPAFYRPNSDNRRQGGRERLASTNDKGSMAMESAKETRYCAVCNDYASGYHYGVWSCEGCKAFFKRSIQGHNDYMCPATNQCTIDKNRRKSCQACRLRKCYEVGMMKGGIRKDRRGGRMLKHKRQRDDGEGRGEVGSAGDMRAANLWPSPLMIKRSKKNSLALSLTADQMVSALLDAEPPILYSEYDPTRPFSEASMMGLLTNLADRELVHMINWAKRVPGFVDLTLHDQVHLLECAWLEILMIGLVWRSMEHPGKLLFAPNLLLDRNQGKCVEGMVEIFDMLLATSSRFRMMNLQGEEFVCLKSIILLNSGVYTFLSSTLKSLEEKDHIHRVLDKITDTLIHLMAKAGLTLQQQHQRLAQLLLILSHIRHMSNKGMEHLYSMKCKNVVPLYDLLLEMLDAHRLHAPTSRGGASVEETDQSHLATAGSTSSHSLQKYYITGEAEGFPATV
Experimental: as §2

ERE reporter gene = ERE reporter gene assay in Ishikawa cells with or without PELP1 H1 mutant; format: cell-based, human; details: Ishikawa cells transfected with ERE reporter gene, treated or not treated with estrogen; FIG. 1E
From the text: Ishikawa (human endometrial adenocarcinoma) cells were transfected with ERE reporter gene with or without the PELP1 H1 mutant. […]

ERE luciferase reporter = ERE luciferase reporter assay in MCF-7, Ishikawa, HeLa and SaoS2 cells; details: E2 10^−9M, 24 hours
ERα [2] = molecular target: T1, ERα; assay: E2-mediated transactivation with PELP1 mutant lacking C-terminal histone-binding region; details: FIG. 9

Row | Compound | tamoxifen-mediated agonist activity (Ishikawa cells) | tamoxifen-mediated agonist activity (MCF-7 cells) | increase of ERE-luciferase (luc) activity in ligand-stimulated cells (ER) | increase of 3XEREluc reporter activity (ERα [1]) | estrogen-mediated transcriptional activation (ERE reporter gene activity) (ERE reporter gene) | ERE luciferase reporter activity (ERE luciferase reporter; FIG. 2) | ERE luciferase reporter activity (ERE luciferase reporter; FIG. 2, listed as Histone H1 mutant) | ERα mediated transcription (ERα [2])
1 | wild-type PELP1: Proline, glutamic acid and leucine rich protein 1, full length, expressed from PELP1 cDNA; SEQ ID NO:1 | augmented tamoxifen-mediated agonist activity | not in MCF-7 cells | 9 fold |  |  |  |  | 
2 | CCCc1c(-c2ccc(O)cc2)nn(-c2ccc(O)cc2)c1-c1ccc(O)cc1 [PPT] |  |  |  | 9 times more than the vector-transfected control |  |  |  | 
3 | PELP1 H1 mutant: C-terminal deleted PELP1 mutant (aa 1-877), stop codon after amino acid 877, lacks Histone H1 binding domain; SEQ ID NO:14 | disrupted tamoxifen-mediated agonist activity |  |  |  | blocking of estrogen-mediated transcriptional activation | effectively suppressed the estrogen mediated ER coactivation functions | substantially reduced the magnitude of the transcriptional activation by estrogen | blocks ERα mediated transcription
